Structures can show the parent of a compound that is named as a salt. Where two headings read alike, the source gives them in different places. A value given as a limit tells only on which side of the number the result lay.

In one assay the target is T1, h-5-HT6 receptor (Homo sapiens, UniProt P50406).
T1 construct: expressed in transfected cells; host or cells: HEK293
The assay can be described thus: 5-HT6 receptor binding assay (displacement of [3H]-LSD). The procedure: Displacement of radioligands binding to the following cloned human receptors
(§1) 1. Preparation of Membranes by Ultrasonic Treatment and Differential Centrifugation
Cells from stable clonal cell lines expressing the corresponding receptor (5-HT6, α1-adrenergic, dopamine D2 or histamine H1 receptors) were washed with PBS (w/o Ca^++, Mg^++) and harvested in PBS with 0.02% EDTA. The cells were collected by centrifugation at 500 g for 10 min. at 4° C., washed with PBS and centrifuged (500 g, 10 min. 4° C.). The pellets were stored at −80° C. until use. For membrane preparation, the thawed cell pellet was resuspended in ice-cold sucrose buffer (0.25 M sucrose, 10 mM Hepes (pH 7.4), 1 mM Phenylmethylsulfonyl fluoride (PMSF) in DMSO, 5 μg/ml Pepstatin-A, 3 mM EDTA, 0.025% Bacitracin) and homogenized with a Branson Sonifier W-250 (Settings: Timer 4; Output Control 3; Duty Cycle constant; 2 to 3 cycles). Cell disruption was checked with the aid of a microscope. Remaining unbroken cells were pelleted at 1.000 g for 10 min. at 4° C. The sucrose buffer supernatant was then centrifuged at 60.000 g for 1 h at 4° C. (Beckman Ultrazentrifuge XL 80). The pellet was resuspended in 30 ml ice-cold Tris buffer (20 mM TRIS (pH 7.4), 5 μg/ml Pepstatin A, 0.1 mM PMSF, 3 mM EDTA) by pipetting through a 10 ml serological pipet and centrifuged for 1 h at 4° C. at 60.000 g. A final resuspension was performed in a small volume of ice-cold Tris buffer (see above) by pressing through a serological pipet followed by ultrasonic treatment with a Branson Sonifier W-250 (Settings: Timer 1; Output Control 3; Duty Cycle constant; 1 cycle). Protein concentration was determined (BCA-Kit; Pierce) and aliquots stored at −80° C. or in liquid nitrogen for long-term storage.
(§2) 2. Receptor Binding Experiments
All receptor binding experiments were carried out in the corresponding assay buffer in a total volume of 200 μl in the presence of various concentrations of test compound (10^−5 M to 10^−9 M, tenfold serial dilution, duplicate determinations). The assays were terminated by filtration on polyethylenimine (PEI 0.1% or 0.3%) presoaked Packard Unifilter Plates (GF/C or GF/B) with a Tomtec MachIII U 96 well-plate harvester. After the plates had been dried for 2 h at 55° C. in a drying chamber scintillation cocktail (BetaPlate Scint; PerkinElmer) was added. Radioactivity was measured in a Microbeta Trilux two hours after the addition of the scintillation mixture. Data derived from liquid scintillation counting were analysed by iterative non-linear regression analysis with the use of the Statistical Analysis System (SAS): a program similar to “LIGAND” as described by Munson and Rodbard (Analytical Biochemistry 107, 220-239 (1980).
a) 5-HT6 Receptor Binding Assay
HEK293 cells stably expressing the h-5-HT6 receptor (NCBI Reference Sequence XM 001435) were cultured in RPMI1640 medium supplemented with 25 mM HEPES, 10% fetal calf serum and 1-2 mM glutamine. The membrane preparation was performed as described in section 1. […] Non-specific binding was defined with 1 μM methiothepin. The binding reaction was carried out for 3.5 h at room temperature. […]
Data derived from liquid scintillation counting were analyzed by iterative non-linear regression analysis with the use of the Statistical Analysis System (SAS): a program similar to “LIGAND” as described by Munson and Rodbard (Anal. Biochem. 1980, 107, 220-239). […] IC50, nH and Ki values were expressed as geometrical mean.
Background: Displacement assays read how much labelled ligand stays bound in the presence of the test substance.

The next assay has as its target T2, dopamine D2 receptor (Homo sapiens, UniProt P14416).
T2 construct: expressed in transfected cells; host or cells: HEK293
The assay can be described thus: Dopamine D2 receptor binding assay (displacement of [125I]-iodospiperone). Conditions: saturation binding experiments, HEK293 D2 membranes. As for the experimental part: as §1
The pellets were stored at −80° C. until use. […] (Beckman Ultrazentrifuge XL 80).
as §2
b) Dopamine D2 Receptor Binding Assay
Non-specific binding was defined with 1 μM haloperidol.

The mark [1] stands for this setting: membranes of HEK293 cells stably expressing h-5-HT6 receptor, 1 nM [3H]-LSD, read-out: Ki (5HT6).

T1 sequence (P50406 whole entry): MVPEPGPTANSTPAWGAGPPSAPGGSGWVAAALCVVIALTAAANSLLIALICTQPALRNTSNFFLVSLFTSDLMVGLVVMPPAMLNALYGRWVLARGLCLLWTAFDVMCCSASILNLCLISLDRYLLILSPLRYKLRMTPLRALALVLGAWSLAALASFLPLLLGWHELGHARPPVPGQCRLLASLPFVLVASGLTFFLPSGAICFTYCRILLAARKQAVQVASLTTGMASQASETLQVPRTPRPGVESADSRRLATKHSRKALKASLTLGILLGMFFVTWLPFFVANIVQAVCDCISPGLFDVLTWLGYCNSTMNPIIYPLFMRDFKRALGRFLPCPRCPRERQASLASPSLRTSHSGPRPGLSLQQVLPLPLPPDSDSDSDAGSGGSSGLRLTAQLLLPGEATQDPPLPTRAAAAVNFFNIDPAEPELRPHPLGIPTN
T2 sequence (P14416 whole entry): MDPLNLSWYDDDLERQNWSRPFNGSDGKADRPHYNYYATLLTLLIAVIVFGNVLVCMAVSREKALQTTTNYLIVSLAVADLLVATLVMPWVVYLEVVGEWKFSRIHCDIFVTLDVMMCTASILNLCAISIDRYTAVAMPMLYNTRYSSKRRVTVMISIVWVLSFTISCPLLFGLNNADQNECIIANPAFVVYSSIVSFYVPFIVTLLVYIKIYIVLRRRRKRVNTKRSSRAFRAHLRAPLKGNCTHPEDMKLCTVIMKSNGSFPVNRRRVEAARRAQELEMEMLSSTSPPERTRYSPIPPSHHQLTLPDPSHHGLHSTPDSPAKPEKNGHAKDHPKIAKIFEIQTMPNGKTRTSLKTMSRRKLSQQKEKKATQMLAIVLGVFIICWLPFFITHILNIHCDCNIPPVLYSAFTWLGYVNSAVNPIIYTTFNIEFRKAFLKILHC

With `Cc1ccc(N(C)S(=O)(=O)c2cccc(OC(F)F)c2)cc1N1CCCNCC1` [Example 3, N-(3-[1,4]Diazepan-1-yl-4-methyl-phenyl)-3-difluoromethoxy-N-methyl-benzenesulfonamide hydrochloride], the Ki (commonly the dissociation constant of the complex between target and ligand, obtained from inhibition or displacement) at h-5-HT6 receptor (setting [1]) was less than 250 nM.

As for `Cc1ccc(NS(=O)(=O)c2ccccc2OC(F)F)cc1N1CCCN(C)CC1` [Example 5, 2-Difluoromethoxy-N-[4-methyl-3-(4-methyl-[1,4]diazepan-1-yl)-phenyl]-benzenesulfonamide hydrochloride], on h-5-HT6 receptor (setting [1]), the Ki was less than 20 nM.

Regarding `Cc1ccc(NS(=O)(=O)c2cccc(OC(F)F)c2)cc1N1CCCNCC1` [Example 4, N-(3-[1,4]Diazepan-1-yl-4-methyl-phenyl)-3-difluoromethoxy-benzenesulfonamide hydrochloride], the Ki on h-5-HT6 receptor (setting [1]) is less than 20 nM.

`Cc1ccc(NS(=O)(=O)c2cccc(OC(F)F)c2)cc1N1CCNCC1` [Example 1, 3-Difluoromethoxy-N-(4-methyl-3-piperazin-1-yl-phenyl)-benzenesulfonamide hydrochloride] registered a Ki on h-5-HT6 receptor of less than 20 nM.

In the case of iodospiperone [[^125I]-iodospiperone], at dopamine D2 receptor, binding was put at a Kd of 0.22 nM.

Regarding `Cc1ccc(NS(=O)(=O)c2ccccc2OC(F)F)cc1N1CCCNCC1` [Example 2, N-(3-[1,4]Diazepan-1-yl-4-methyl-phenyl)-2-difluoromethoxy-benzenesulfonamide hydrochloride], the inhibition constant (Ki) on h-5-HT6 receptor (setting [1]) was less than 50 nM.

Values taken from US8183237B2, “Benzenesulfonanilide compounds suitable for treating disorders that respond to modulation of the serotonin 5-HT6 receptor” (Abbott Laboratories, priority 2009, dated 2012).
